Test results from patent publication US20230127944A1, “BROAD-SPECTRUM CARBAPENEMS” (priority 2019, published 2023).
In brackets after ≈: the same amount, converted by molar mass.

Assays:
Format in all cases: cell-based
[1] = tested on: S. aureus ATCC 33591 (methicillin-resistant); assay: broth microdilution MIC assay, S. aureus 33591; details: Staphylococcus aureus, ATCC33591; S. aureus 33591, methicillin-resistant; read-out: MIC, S. aureus 33591
Description: (§1) To determine the ability of test compounds to inhibit the growth of bacterial strains, classic cell-based broth microdilution MIC assays were employed. MIC assays are performed according to CLSI methods except where otherwise noted (CLSI, 2011 and CLSI, 2009). The reference strains S. aureus ATCC 29213 (methicillin sensitive), S. aureus ATCC 33591 (methicillin-resistant), E. coli ATCC 25922 (wild-type/QC strain), P. aeruginosa ATCC 27853 (wild-type/QC strain), and the clinical isolate P. aeruginosa PA 8 were used to determine the ability of the exemplary carbapenem compounds to inhibit bacterial growth. An expanded panel of methicillin resistance S. aureus (MRSA) and Pseudomonas was also used to determine the ability of exemplary carbapenem compounds to inhibit bacterial growth across a broader representation of those species. To determine activity in MRSA and in addition to S. aureus ATCC 33591, S. aureus USA 300 and USA 600, some of the most common clones found to cause human infection, were also used. To further gauge the impact on the carbapenem compounds due to various resistance mechanisms in Pseudomonas, the following strains were included: P. aeruginosa 35151 (hyper-permeable strain), P. aeruginosa ΔmexAB-OprM (an efflux pump knockout), and P. aeruginosa Paβ-173 (a clinical isolate of reduced carbapenem susceptibility). Briefly, cryo-preserved bacterial cultures of clinical strains are streaked for isolation on appropriate agar medium, in this case Mueller Hinton II agar. Following incubation to allow formation of colonies, these plates are sealed with parafilm and stored refrigerated for up to two weeks. For preparation of assay inocula and to ensure low variability, at least 5 colonies are picked from the agar plates with an inoculating loop and aseptically transferred to a culture tube containing 3 mL of Mueller-Hinton Broth (supplemented with divalent cations to required levels based on Manufacturers' specification). The broth culture is grown for 3-5 hours at 37° C. with shaking at 200 rpm. Meanwhile, 2-fold serial dilutions of test compounds are conducted in a 96 well plate with a final volume of 75 μL per well at 2-fold the final desired concentration. After the dilution plates are set up the growing cultures are then diluted in a cuvette containing MH II broth and the optical density is measured at 600 nm. Inocula are diluted such that 75 μL of this culture in Mueller-Hinton Broth results in a starting bacterial concentration of 5×10^5 CFU/mL when added to the dilution plates. The plates are incubated 16-20 hours at 37° C. The MIC is read visually as the lowest concentration well with no bacterial growth.

S. aureus USA 300 = assay: broth microdilution MIC assay, S. aureus USA300; details: Staphylococcus aureus; S. aureus USA300 (MRSA); read-out: MIC, S. aureus USA300
Description: as §1

S. aureus USA 600 = assay: broth microdilution MIC assay, S. aureus USA600; details: Staphylococcus aureus; S. aureus USA600 (MRSA); read-out: MIC, S. aureus USA600
Description: as §1

[2] = tested on: E. coli ATCC 25922 (wild-type/QC strain); assay: broth microdilution MIC assay, E. coli 25922; details: Escherichia coli, ATCC25922; read-out: MIC, E. coli 25922
Description: as §1

[3] = tested on: P. aeruginosa ATCC 27853 (wild-type/QC strain); assay: broth microdilution MIC assay, P. aeruginosa 27853; details: Pseudomonas aeruginosa, ATCC27853; read-out: MIC, P. aeruginosa 27853
Description: as §1

[4] = tested on: P. aeruginosa 35151 (hyper-permeable strain); assay: broth microdilution MIC assay, P. aeruginosa 35151; details: Pseudomonas aeruginosa, read-out: MIC, P. aeruginosa 35151
Description: as §1

[5] = tested on: P. aeruginosa ΔmexAB-OprM (an efflux pump knockout); assay: broth microdilution MIC assay, P. aeruginosa ΔmexAB-OprM; details: Pseudomonas aeruginosa, read-out: MIC, P. aeruginosa ΔmexAB-OprM
Description: as §1

P. aeruginosa Paeβ-17 = assay: broth microdilution MIC assay, P. aeruginosa Paeβ-17; details: Pseudomonas aeruginosa, read-out: MIC, P. aeruginosa Paeβ-17
Description: as §1

Compound	MIC [1] [µg/mL]	MIC (S. aureus USA 300) [µg/mL]	MIC (S. aureus USA 600) [µg/mL]	MIC [2] [µg/mL]	MIC [3] [µg/mL]	MIC [4] [µg/mL]	MIC [5] [µg/mL]	MIC (P. aeruginosa Paeβ-17) [µg/mL]
C[C@@H](O)[C@H]1C(=O)N2C(C(=O)O)=C(S[C@@H]3CCN(C[C@H]4CC[C@H](CNC(=N)N)CC4)C3)[C@H](C)[C@H]12 [Example 41, (4R,5S,6S)-3-(((R)-1-(((1R,4R)-4-(guanidinomethyl)cyclohexyl)methyl)pyrrolidin-3-yl)thio)-6-((R)-1-hydroxyethyl)-4-methyl-7-oxo-1-azabicyclo[3.2.0]hept-2-ene-2-carboxylic acid]	1 to 4 (≈ 2.08 to 8.34 µM)	1 to 4 (≈ 2.08 to 8.34 µM)	1 to 4 (≈ 2.08 to 8.34 µM)	< 1	1 to 4 (≈ 2.08 to 8.34 µM)	< 1	1 to 4 (≈ 2.08 to 8.34 µM)	8 to 32 (≈ 16.7 to 66.7 µM)
C[C@@H](O)[C@H]1C(=O)N2C(C(=O)O)=C(S[C@@H]3CCN(C[C@H]4CC[C@@H](N)CC4)C3)[C@H](C)[C@H]12 [Example 72, (4R,5S,6S)-3-(((R)-1-(((1S,4S)-4-aminocyclohexyl)methyl)pyrrolidin-3-yl)thio)-6-((R)-1-hydroxyethyl)-4-methyl-7-oxo-1-azabicyclo[3.2.0]hept-2-ene-2-carboxylic acid]	8 to 32 (≈ 18.9 to 75.5 µM)	1 to 4 (≈ 2.36 to 9.44 µM)	1 to 4 (≈ 2.36 to 9.44 µM)	< 1	1 to 4 (≈ 2.36 to 9.44 µM)	< 1	8 to 32 (≈ 18.9 to 75.5 µM)	1 to 4 (≈ 2.36 to 9.44 µM)
C[C@@H](O)[C@H]1C(=O)N2C(C(=O)O)=C(SC3CN([C@H]4CC[C@H](N)C4)C3)[C@H](C)[C@H]12 [Example 5, (4R,5S,6S)-3-((1-((1S,3S)-3-aminocyclopentyl)azetidin-3-yl)thio)-6-((R)-1-hydroxyethyl)-4-methyl-7-oxo-1-azabicyclo[3.2.0]hept-2-ene-2-carboxylic acid]	1 to 4 (≈ 2.62 to 10.5 µM)	1 to 4 (≈ 2.62 to 10.5 µM)	1 to 4 (≈ 2.62 to 10.5 µM)	< 1	1 to 4 (≈ 2.62 to 10.5 µM)	< 1	1 to 4 (≈ 2.62 to 10.5 µM)	8 to 32 (≈ 21 to 83.9 µM)
C[C@@H](O)[C@H]1C(=O)N2C(C(=O)O)=C(S[C@H]3C[C@@H](N[C@H]4CC[C@H](N)CC4)C3)[C@H](C)[C@H]12 [Example 61, (4R,5S,6S)-3-(((1S,3S)-3-(((1R,4S)-4-aminocyclohexyl)amino)cyclobutyl)thio)-6-((R)-1-hydroxyethyl)-4-methyl-7-oxo-1-azabicyclo[3.2.0]hept-2-ene-2-carboxylic acid]	1 to 4 (≈ 2.44 to 9.77 µM)	1 to 4 (≈ 2.44 to 9.77 µM)	1 to 4 (≈ 2.44 to 9.77 µM)	< 1	1 to 4 (≈ 2.44 to 9.77 µM)	< 1	1 to 4 (≈ 2.44 to 9.77 µM)	8 to 32 (≈ 19.5 to 78.1 µM)
C[C@@H](O)[C@H]1C(=O)N2C(C(=O)O)=C(S[C@H]3C[C@H](N[C@H]4CC[C@H](NC(=N)N)C4)C3)[C@H](C)[C@H]12 [Example 73, (4R,5S,6S)-3-(((1S,3R)-3-(((1S,3S)-3-guanidinocyclopentyl)amino)cyclobutyl)thio)-6-((R)-1-hydroxyethyl)-4-methyl-7-oxo-1-azabicyclo[3.2.0]hept-2-ene-2-carboxylic acid]	8 to 32 (≈ 18.3 to 73.1 µM)	1 to 4 (≈ 2.29 to 9.14 µM)	1 to 4 (≈ 2.29 to 9.14 µM)	< 1	1 to 4 (≈ 2.29 to 9.14 µM)	< 1	8 to 32 (≈ 18.3 to 73.1 µM)	1 to 4 (≈ 2.29 to 9.14 µM)
C[C@@H](O)[C@H]1C(=O)N2C(C(=O)O)=C(S[C@@H]3CC[C@H](NC4CCN(C(=N)N)CC4)C3)[C@H](C)[C@H]12 [Example 49, (4R,5S,6S)-3-(((1R,3S)-3-((1-carbamimidoylpiperidin-4-yl)amino)cyclopentyl)thio)-6-((R)-1-hydroxyethyl)-4-methyl-7-oxo-1-azabicyclo[3.2.0]hept-2-ene-2-carboxylic acid]	1 to 4 (≈ 2.21 to 8.86 µM)	1 to 4 (≈ 2.21 to 8.86 µM)	1 to 4 (≈ 2.21 to 8.86 µM)	< 1	1 to 4 (≈ 2.21 to 8.86 µM)	< 1	1 to 4 (≈ 2.21 to 8.86 µM)	8 to 32 (≈ 17.7 to 70.9 µM)
C[C@@H](O)[C@H]1C(=O)N2C(C(=O)O)=C(SC3CN([C@@H]4CC[C@@H](N)C4)C3)[C@H](C)[C@H]12 [Example 8, (4R,5S,6S)-3-((1-((1R,3R)-3-aminocyclopentyl)azetidin-3-yl)thio)-6-((R)-1-hydroxyethyl)-4-methyl-7-oxo-1-azabicyclo[3.2.0]hept-2-ene-2-carboxylic acid]	1 to 4 (≈ 2.62 to 10.5 µM)	1 to 4 (≈ 2.62 to 10.5 µM)	1 to 4 (≈ 2.62 to 10.5 µM)	< 1	1 to 4 (≈ 2.62 to 10.5 µM)	< 1	1 to 4 (≈ 2.62 to 10.5 µM)	8 to 32 (≈ 21 to 83.9 µM)
C[C@@H](O)[C@H]1C(=O)N2C(C(=O)O)=C(SC3CN([C@H]4C[C@H](CN)C4)C3)[C@H](C)[C@H]12 [Example 2, (4R,5S,6S)-3-((1-((1r,3R)-3-(aminomethyl)cyclobutyl)azetidin-3-yl)thio)-6-((R)-1-hydroxyethyl)-4-methyl-7-oxo-1-azabicyclo[3.2.0]hept-2-ene-2-carboxylic acid]	8 to 32 (≈ 21 to 83.9 µM)	1 to 4 (≈ 2.62 to 10.5 µM)	1 to 4 (≈ 2.62 to 10.5 µM)	< 1	8 to 32 (≈ 21 to 83.9 µM)	< 1	1 to 4 (≈ 2.62 to 10.5 µM)	> 32
C[C@@H](O)[C@H]1C(=O)N2C(C(=O)O)=C(S[C@H]3C[C@@H](NC4CCNCC4)C3)[C@H](C)[C@H]12 [Example 44, (4R,5S,6S)-6-((R)-1-hydroxyethyl)-4-methyl-7-oxo-3-(((1S,3S)-3-(piperidin-4-ylamino)cyclobutyl)thio)-1-azabicyclo[3.2.0]hept-2-ene-2-carboxylic acid]	8 to 32 (≈ 20.2 to 80.9 µM)	1 to 4 (≈ 2.53 to 10.1 µM)	1 to 4 (≈ 2.53 to 10.1 µM)	< 1	8 to 32 (≈ 20.2 to 80.9 µM)	< 1	1 to 4 (≈ 2.53 to 10.1 µM)	8 to 32 (≈ 20.2 to 80.9 µM)
C[C@@H](O)[C@H]1C(=O)N2C(C(=O)O)=C(S[C@H]3C[C@H](NC4CCNCC4)C3)[C@H](C)[C@H]12 [Example 38, (4R,5S,6S)-6-((R)-1-hydroxyethyl)-4-methyl-7-oxo-3-(((1R,3R)-3-(piperidin-4-ylamino)cyclobutyl)thio)-1-azabicyclo[3.2.0]hept-2-ene-2-carboxylic acid]	8 to 32 (≈ 20.2 to 80.9 µM)	1 to 4 (≈ 2.53 to 10.1 µM)	1 to 4 (≈ 2.53 to 10.1 µM)	< 1	8 to 32 (≈ 20.2 to 80.9 µM)	< 1	1 to 4 (≈ 2.53 to 10.1 µM)	8 to 32 (≈ 20.2 to 80.9 µM)
